Laboratory results published in ChEMBL document CHEMBL1697781, “Assessment of the health effects of chemicals in humans: II. Construction of an adverse effects database for QSAR modeling” (Curr Drug Discov Technol, 2004).

What was measured:
Details in all cases: human; call rule not given here
[1] = test system: Hepatotoxicity; test: FDA HLAED, gamma-glutamyl transferase (GGT) increase
[2] = test system: Hepatotoxicity; test: FDA HLAED, liver enzyme composite activity
[3] = test system: Hepatotoxicity; test: FDA HLAED, serum glutamic pyruvic transaminase (SGPT) increase
[4] = test system: Hepatotoxicity; test: FDA HLAED, lactate dehydrogenase (LDH) increase
[5] = test system: Hepatotoxicity; test: FDA HLAED, serum glutamic oxaloacetic transaminase (SGOT) increase
[6] = test system: Hepatotoxicity; test: FDA HLAED, alkaline phosphatase increase
For GGT Increase - Index Value in this document: reference of the scale not given here.
For LDH Increase - Index Value in this document: reference of the scale not given here.

| SMILES | GGT Increase - Activity Score [1] | GGT Increase - Index Value [1] | GGT Increase - Number of Reports [1] | Composite Activity - Active [2] | Composite Activity - Marginal [2] | Composite Activity - Score [2] | SGPT Increase - Activity Score [3] | SGPT Increase - Index Value [3] | SGPT Increase - Number of Reports [3] | LDH Increase - Activity Score [4] | LDH Increase - Index Value [4] | LDH Increase - Number of Reports [4] | SGOT Increase - Activity Score [5] | SGOT Increase - Index Value [5] | SGOT Increase - Number of Reports [5] | Alkaline Phosphatase Increase - Activity Score [6] | Alkaline Phosphatase Increase - Index Value [6] | Alkaline Phosphatase Increase - Number of Reports [6] | further results |
| --- | --- | --- | --- | --- | --- | --- | --- | --- | --- | --- | --- | --- | --- | --- | --- | --- | --- | --- | --- |
| COc1ccc(CC2c3cc(OC)c(OC)cc3CC[N+]2(C)CCC(=O)OCCCCCOC(=O)CC[N+]2(C)CCc3cc(OC)c(OC)cc3C2Cc2ccc(OC)c(OC)c2)cc1OC (configuration not stated) | Inactive | 0 | < 4 | 0 | 0 | Inactive | Inactive | 0 | < 4 | Inactive | 0 | < 4 | Inactive | 0 | < 4 | Inactive | 0 | < 4 | – |
| CCCC(=O)Nc1ccc(OCC(O)CNC(C)C)c(C(C)=O)c1 (configuration not stated) [ACEBUTOLOL] | Inactive | 0 | < 4 | 0 | 3 | Inactive | Marginally Active | 3.3 | >= 4 | Marginally Active | 3.3 | >= 4 | Inactive | 2.6 | >= 4 | Marginally Active | 3.9 | >= 4 | – |
| O=C(NCC(O)CO)c1c(I)c(C(=O)NCC(O)CO)c(I)c(N(CCO)C(=O)CO)c1I (configuration not stated) [IOVERSOL] | Inactive | 0 | < 4 | 0 | 0 | Inactive | Inactive | 0 | < 4 | Inactive | 400 | < 4 | Inactive | 0 | < 4 | Inactive | 0 | < 4 | – |
| COCCCC/C(=N\OCCN)c1ccc(C(F)(F)F)cc1 [FLUVOXAMINE] | Inactive | 1.4 | < 4 | 2 | 0 | Active | Active | 8.9 | >= 4 | Inactive | 2.1 | < 4 | Active | 8.9 | >= 4 | Inactive | 2.7 | >= 4 | – |
| CC(C)(C(=O)O)c1ccc(C(O)CCCN2CCC(C(O)(c3ccccc3)c3ccccc3)CC2)cc1 (configuration not stated) [FEXOFENADINE] | Inactive | 0 | < 4 | – | – | – | Inactive | 0 | < 4 | Inactive | 0 | < 4 | Inactive | 0 | < 4 | Inactive | 0 | < 4 | Composite Activity - Active ([2]; Liver): 0; Composite Activity - Marginal ([2]; Liver): 0; Composite Activity - Score ([2]; Liver): Inactive |
| C=CC[N+]1([C@H]2C[C@H]3[C@@H]4CC[C@H]5C[C@H](O)[C@@H](N6CCOCC6)C[C@]5(C)[C@H]4CC[C@]3(C)[C@H]2OC(C)=O)CCCC1.[Br-] [ROCURONIUM BROMIDE] | Inactive | 0 | < 4 | 0 | 0 | Inactive | Inactive | 0 | < 4 | Inactive | 0 | < 4 | Inactive | 0 | < 4 | Inactive | 0 | < 4 | – |
| Nc1cc(Cl)c(N=C2NCCN2)c(Cl)c1 [APRACLONIDINE] | Inactive | 0 | < 4 | 0 | 0 | Inactive | Inactive | 0 | < 4 | Inactive | 0 | < 4 | Inactive | 0 | < 4 | Inactive | 0 | < 4 | – |
| C[C@@]12CCCCC[C@@H](Cc3ccc(O)cc31)[C@@H]2N [DEZOCINE] | Inactive | 0 | < 4 | 0 | 0 | Inactive | Inactive | 0 | < 4 | Inactive | 0 | < 4 | Inactive | 0 | < 4 | Inactive | 0 | < 4 | – |
| CO/N=C(\C(=O)N[C@@H]1C(=O)N2C(C(=O)O)=C(CSc3nc(=O)c(=O)[nH]n3C)CS[C@H]12)c1csc(N)n1 [CEFTRIAXONE] | Inactive | 2.6 | >= 4 | 0 | 3 | Inactive | Marginally Active | 3.8 | >= 4 | Inactive | 1.9 | >= 4 | Marginally Active | 3.8 | >= 4 | Marginally Active | 3.4 | >= 4 | – |
